# According to paper PMC8778187, “A New Oxygen Containing Pyclen-Type Ligand as a Manganese(II) Binder for MRI and ^52Mn PET Applications: Equilibrium, Kinetic, Relaxometric, Structural and Radiochemical Studies” (Molecules, 2022):
# Tests used:
# [1] = Stability and protonation constants and pMn of Mn(II) complexes by pH-potentiometry; assay type: physicochemical
# Protocol: The stability and protonation constants of the metal complexes formed with H2OPC2A were determined by pH-potentiometric titrations, but, for the Cu(II) complex, UV-Vis spectrophotometric measurements were also carried out to supplement the pH-potentiometric titration data (Figures S21 and S22, Supporting Information).
# The validity of the equilibrium model used for the fitting of the pH-potentiometric titration data for the Mn(II) system, was supported by ^1H relaxometric measurements, when 1/T1 and 1/T2 relaxation rates were determined as a function of pH, and their trends were compared to the species distribution curves calculated by using the equilibrium constants determined by pH-potentiometry (Table 3). The equilibrium for all metal ions can be described by considering the formation of only ([M(L)]) and monoprotonated ([M(HL)]) complexes (Table 3). However, for the Mn(II), Cu(II), and Zn(II) ions, the formation of ternary hydroxido species ([M(L)(OH)]) was also considered. A comparison of the pH-relaxation rate profiles normalized to 1 mM with the species distribution curves, confirmed that the equilibrium model applied for the fitting of pH-potentiometric titration data, satisfactorily described the Mn(II) system. […] The formation of the [Mn(3,9-OPC2A)] complex was also confirmed by analytical HPLC at pH 7.0 relying on the different retention times of the ligand and the complex (the difference is more than 2 min (Figures S20 and S23)).
# The stability constants of the complexes are summarized and compared to those of the chelates formed with H21,7-DO2A, H21,4-DO2A, H23,6-PC2A, H23,9-PC2A, and H21,7-O2DO2A, in Table 3. H23,9-OPC2A forms considerably weaker complexes with all the metal ions involved in the study, than H23,9-PC2A, H23,6-PC2A, H21,7-DO2A, and H21,4-DO2A chelators. […] A similar trend in the stability constants can be observed, when the stability of the structurally related ligands is compared (H23,9-PC2A vs. H21,7-DO2A and, at a somewhat lesser extent, in the case of H23,6-PC2A vs. H21,4-DO2A ligands). […] Therefore, we have calculated the pMn values (pMn = −log(Mn(II)free) for the Mn complexes, by using the conditions proposed by É. Tóth and coworkers (cMn^2+ = cligand = 1 × 10^−5 M, T = 25 °C, pH = 7.4). As it is seen from the data presented in Table 3, the value characteristic for the [Mn(3,9-OPC2A)] complex is as high (pMn = 8.69) as it is for the [Mn(3,9-PC2A)] chelate (despite its lower stability constant), which is, in fact, the highest known value for a monoaquated macrocyclic Mn(II) complex (pMn = 8.64). This means that more than 99,97% of the total Mn(II) in the system is chelated by the H23,9-OPC2A ligand near pH = 7.4 in equilibrium.
# Metal stock solutions were prepared from the highest analytical grade chemicals, and their concentrations were determined by complexometric titration with standardized Na2H2EDTA and eriochrome black T indicator in the presence of ascorbic acid, and potassium hydrogen tartrate for MnCl2, murexide indicator for CaCl2 and CuCl2, eriochrome black T for MgCl2 and xylenol orange in the presence of hexamethylenetetramine for the solution of ZnCl2. The concentration of the ligand stock solution was determined by pH-potentiometric titrations. The protonation constants of the ligand were determined by the pH potentiometric titrations with 0.15 M NaOH, using 0.0025 M ligand solutions. The ionic strength was set to 0.15 M by using NaCl. […]
# [2] = Metal exchange (transmetalation) with Zn(II) followed by T2 relaxometry; assay type: physicochemical
# Source text: The kinetic inertness of the complexes considered for in vivo applications is an important parameter. It can be characterized by using various approaches. One of the possibilities is to study the rates of dissociation of the complexes, by following the transmetalation reactions occurring between the complex and the large excess (applied to ensure pseudo-first-order conditions) of a suitable exchanging metal ions (essential metal ions, such as Zn(II) or Cu(II) are often used for this purpose). The rates of dissociation reactions are explored as a function of pH (in a wide pH range) as well as in a wide metal ion concentration range, in order to obtain information about the contribution of various mechanisms (spontaneous, acid-, or metal-assisted dissociation). […] Results obtained for different complexes under the same conditions can be compared, and the order of relative inertness can be accessed rapidly. Finally, in the field of nuclear medicine, the “serum stability” is often determined, which, in fact, reflects dissociation in the blood serum (i.e., the dissociation initiated by the serum components). Upon the dissociation of the complex, the Mn(II) reacts with the serum components (HSA for instance), which results in a considerable relaxivity enhancement caused by the formation of Mn(II) species with a longer rotational correlation time (a remarkable increase in molecular mass). Therefore, ^1H relaxometry is an easily accessible tool for following the transmetalation/transchelation reactions of paramagnetic complexes occurring in blood serum.
# Metal exchange reactions occurring with Zn(II) at pH = 6.0: first, we evaluated the rate of the metal exchange reaction occurring with Zn(II) under the conditions proposed by P. Caravan and coworkers, in order to have an idea of how the replacement of the secondary amine group for an etheric oxygen in the rim of the pyclen macrocycle affects the inertness of its corresponding Mn(II) complex. The plot of the 1/T2 values as a function of time for the [Mn(3,9-OPC2A)] and [Mn(3,9-PC2A)] complexes are shown in Figure S26 (Supporting Information). Fitting the measured data for the [Mn(3,9-OPC2A)] by the monoexponential function gives the rate constant kobs = (1.74 ± 0.04) × 10^−5 s^−1.
# The inertness of the [Mn(3,9-OPC2A)] complex was studied by various methods. The transmetalation reaction initiated by the Zn(II) ions was monitored by measuring the T2 relaxation times as a function of time at pH = 6.0, set by a 50 mM 2-(N-morpholino)ethanesulfonic acid (MES) buffer in the presence of 25 equivalents of Zn(II) ions at 37 °C. These conditions were recently used by P. Caravan et al., and employed in the present study to obtain data that can be directly compared with that of [Mn(PyC3A)]^– [6].
# [3] = Mn^2+ complex, T = 25 °C, I = 0.15 M NaCl
# [4] = pH = 6.0, 25 equivalents of Zn(II), 37 °C
SMILES,"log KMnHL [1, 3]","log KMnL [1, 3]","log KMnLOH [1, 3]","total Mn(II) chelated by the ligand in equilibrium ([1]; near pH = 7.4, pMn conditions)","pMn ([1]; pMn = −log(Mn(II)free), cMn^2+ = cligand = 1 × 10^−5 M, T = 25 °C, pH = 7.4)","kobs ([2]; pH = 6.0 (50 mM MES), 25 equivalents of Zn(II), 37 °C)","kobs lower than that of [Mn(PyC3A)] [2, 4] [times]","kobs smaller than that of [Mn(3,9-PC2A)] [2, 4]","half-life of dissociation at pH = 7.4 ([2]; pH = 7.4, large Zn(II) excess, from the rate constant) [h]"
"O=C(O)CN1CCOCCN(CC(=O)O)Cc2cccc(n2)C1 [H23,9-OPC2A, 6-Oxa-3,9,15-triazabicyclo(9.3.1)pentadeca-1(15),11,13-triene-3,9-diacetic acid]",2.40(2),13.03(1),11.49(1),"more than 99,97%",8.69,–,–,–,–
"O=C([O-])CN1CCOCCN(CC(=O)[O-])Cc2cccc(n2)C1.[Mn+2] [[Mn(3,9-OPC2A)]]",–,–,–,–,–,(1.74 ± 0.04) × 10^−5 s^−1,~40,circa 20 times,40.0
